A value given as a limit tells only on which side of the number the result lay.

For assay [1], the target named is T1, Alpha-2B adrenergic receptor (Homo sapiens, UniProt P18089).
T1 sequence (P18089 whole entry): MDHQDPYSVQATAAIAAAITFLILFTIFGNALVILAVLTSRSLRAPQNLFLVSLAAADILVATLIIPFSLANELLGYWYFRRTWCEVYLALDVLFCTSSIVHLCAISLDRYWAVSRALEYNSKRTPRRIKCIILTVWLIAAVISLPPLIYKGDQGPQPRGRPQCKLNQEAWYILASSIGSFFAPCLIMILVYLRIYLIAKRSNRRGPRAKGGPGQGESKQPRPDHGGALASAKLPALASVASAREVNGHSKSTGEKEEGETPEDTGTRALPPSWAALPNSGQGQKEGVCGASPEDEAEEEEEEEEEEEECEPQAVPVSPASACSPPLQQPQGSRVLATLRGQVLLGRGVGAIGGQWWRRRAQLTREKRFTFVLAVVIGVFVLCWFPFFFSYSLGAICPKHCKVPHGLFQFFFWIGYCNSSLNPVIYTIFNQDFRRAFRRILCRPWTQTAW

The target of assay [2] is T2, Alpha-2C adrenergic receptor (Homo sapiens, UniProt P18825).
T2 sequence (P18825 whole entry): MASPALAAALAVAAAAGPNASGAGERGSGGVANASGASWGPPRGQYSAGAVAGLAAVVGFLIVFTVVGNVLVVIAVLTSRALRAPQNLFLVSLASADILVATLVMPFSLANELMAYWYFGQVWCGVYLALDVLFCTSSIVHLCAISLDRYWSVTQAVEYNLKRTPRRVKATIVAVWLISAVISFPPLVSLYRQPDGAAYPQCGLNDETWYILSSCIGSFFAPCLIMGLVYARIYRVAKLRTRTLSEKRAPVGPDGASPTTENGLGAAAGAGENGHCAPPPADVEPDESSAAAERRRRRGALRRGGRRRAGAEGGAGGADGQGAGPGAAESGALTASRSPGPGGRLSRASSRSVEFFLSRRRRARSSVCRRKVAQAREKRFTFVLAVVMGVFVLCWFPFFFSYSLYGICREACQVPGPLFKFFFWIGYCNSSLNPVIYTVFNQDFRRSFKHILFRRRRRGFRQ
The assay is classed as functional.

Assay [3] deals with Beta-1 adrenergic receptor (Homo sapiens, UniProt P08588). In kind it is functional.
Beta-1 adrenergic receptor, sequence (P08588 whole entry): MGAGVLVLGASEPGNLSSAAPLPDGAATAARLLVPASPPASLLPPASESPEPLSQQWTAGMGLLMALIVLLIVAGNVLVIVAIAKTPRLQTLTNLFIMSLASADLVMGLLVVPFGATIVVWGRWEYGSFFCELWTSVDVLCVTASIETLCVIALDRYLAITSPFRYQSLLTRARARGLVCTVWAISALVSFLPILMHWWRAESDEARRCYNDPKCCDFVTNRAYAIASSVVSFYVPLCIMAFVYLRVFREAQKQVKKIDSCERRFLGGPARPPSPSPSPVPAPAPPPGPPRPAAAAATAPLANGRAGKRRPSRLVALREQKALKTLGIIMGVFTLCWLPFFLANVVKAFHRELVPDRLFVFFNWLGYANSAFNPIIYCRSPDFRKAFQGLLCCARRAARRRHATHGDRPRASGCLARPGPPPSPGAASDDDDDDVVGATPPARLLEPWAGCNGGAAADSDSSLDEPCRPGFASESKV
Another assay deals with Histamine H1 receptor (Homo sapiens, UniProt P35367).
Histamine H1 receptor, sequence (P35367 whole entry): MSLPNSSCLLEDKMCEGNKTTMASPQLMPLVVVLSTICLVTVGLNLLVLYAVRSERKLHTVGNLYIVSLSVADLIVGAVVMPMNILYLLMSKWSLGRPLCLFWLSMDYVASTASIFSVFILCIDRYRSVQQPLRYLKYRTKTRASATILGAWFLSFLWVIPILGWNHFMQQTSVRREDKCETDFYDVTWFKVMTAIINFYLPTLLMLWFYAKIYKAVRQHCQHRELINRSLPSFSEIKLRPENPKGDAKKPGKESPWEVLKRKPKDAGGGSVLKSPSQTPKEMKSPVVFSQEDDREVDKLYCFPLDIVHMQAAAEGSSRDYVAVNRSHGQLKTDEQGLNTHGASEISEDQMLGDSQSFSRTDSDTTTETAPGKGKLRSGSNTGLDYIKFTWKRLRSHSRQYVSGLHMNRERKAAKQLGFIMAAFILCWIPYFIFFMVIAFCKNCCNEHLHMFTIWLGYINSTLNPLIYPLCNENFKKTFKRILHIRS
The target in assay [4] is 5-hydroxytryptamine receptor 2A (Homo sapiens, UniProt P28223). The assay is classed as functional, cell-based.
5-hydroxytryptamine receptor 2A, sequence (P28223 whole entry): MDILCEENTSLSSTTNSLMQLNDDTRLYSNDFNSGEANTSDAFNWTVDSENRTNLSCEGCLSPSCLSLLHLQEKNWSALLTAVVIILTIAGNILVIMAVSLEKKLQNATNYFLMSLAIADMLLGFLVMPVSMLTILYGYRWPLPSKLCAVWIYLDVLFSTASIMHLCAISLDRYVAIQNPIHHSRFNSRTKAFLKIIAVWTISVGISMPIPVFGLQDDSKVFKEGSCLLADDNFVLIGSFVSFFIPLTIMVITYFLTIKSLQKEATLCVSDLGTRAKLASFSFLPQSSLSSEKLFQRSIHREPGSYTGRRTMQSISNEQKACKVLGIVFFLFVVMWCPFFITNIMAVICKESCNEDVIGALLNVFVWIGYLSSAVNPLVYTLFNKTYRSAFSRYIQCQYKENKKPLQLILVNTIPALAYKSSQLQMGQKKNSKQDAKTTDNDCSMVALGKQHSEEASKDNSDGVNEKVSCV
Assay [5] concerns the target T3, 5-hydroxytryptamine receptor 2B (Homo sapiens, UniProt P41595). In kind it is functional, cell-based.
Assay [6] addresses T3, 5-hydroxytryptamine receptor 2B. In kind it is functional, cell-based. The source holds these as a separate data set.
Assay [7] has as its target Voltage-gated inwardly rectifying potassium channel KCNH2 (Homo sapiens, UniProt Q12809). In kind it is functional. To be noted: read-out: AC50.
Assay [8] addresses T4, Neuropeptide Y receptor type 1 (Homo sapiens, UniProt P25929).
T4 sequence (P25929 whole entry): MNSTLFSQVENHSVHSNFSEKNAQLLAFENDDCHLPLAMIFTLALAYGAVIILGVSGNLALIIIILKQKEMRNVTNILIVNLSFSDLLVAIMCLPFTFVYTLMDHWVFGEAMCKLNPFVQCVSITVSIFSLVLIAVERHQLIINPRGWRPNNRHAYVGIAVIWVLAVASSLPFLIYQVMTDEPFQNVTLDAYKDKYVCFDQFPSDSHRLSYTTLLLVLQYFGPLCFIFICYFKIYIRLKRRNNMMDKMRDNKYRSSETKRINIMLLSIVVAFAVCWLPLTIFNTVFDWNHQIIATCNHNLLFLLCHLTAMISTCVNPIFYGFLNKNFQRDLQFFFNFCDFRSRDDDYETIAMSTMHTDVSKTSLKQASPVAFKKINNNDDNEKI

For assay [9], the target named is Kappa-type opioid receptor (Homo sapiens, UniProt P41145).
Kappa-type opioid receptor, sequence (P41145 whole entry): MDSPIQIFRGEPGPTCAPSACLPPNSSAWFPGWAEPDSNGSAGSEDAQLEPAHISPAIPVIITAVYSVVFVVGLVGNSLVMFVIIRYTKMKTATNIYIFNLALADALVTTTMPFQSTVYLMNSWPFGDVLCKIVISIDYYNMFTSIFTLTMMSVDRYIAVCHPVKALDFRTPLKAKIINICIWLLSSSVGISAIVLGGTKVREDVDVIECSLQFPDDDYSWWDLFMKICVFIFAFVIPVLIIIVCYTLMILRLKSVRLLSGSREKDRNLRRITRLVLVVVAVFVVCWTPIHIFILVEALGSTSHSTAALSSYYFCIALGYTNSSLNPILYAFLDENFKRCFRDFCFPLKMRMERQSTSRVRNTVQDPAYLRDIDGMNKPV
Assay [10] addresses T5, Equilibrative nucleoside transporter 1 (Homo sapiens, UniProt Q99808).
T5 sequence (Q99808 whole entry): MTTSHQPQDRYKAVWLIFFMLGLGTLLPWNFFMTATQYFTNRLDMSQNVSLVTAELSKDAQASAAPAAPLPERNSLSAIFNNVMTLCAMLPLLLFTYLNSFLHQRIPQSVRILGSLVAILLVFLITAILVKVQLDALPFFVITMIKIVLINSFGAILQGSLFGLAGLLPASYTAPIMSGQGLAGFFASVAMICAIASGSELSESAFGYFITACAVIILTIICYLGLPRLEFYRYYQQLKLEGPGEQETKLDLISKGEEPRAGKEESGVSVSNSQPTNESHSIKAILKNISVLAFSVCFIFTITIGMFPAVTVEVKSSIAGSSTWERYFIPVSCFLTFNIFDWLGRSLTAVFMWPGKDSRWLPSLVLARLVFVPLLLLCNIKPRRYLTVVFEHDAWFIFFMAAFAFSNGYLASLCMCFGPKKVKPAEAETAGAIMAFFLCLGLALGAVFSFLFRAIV

Assay [11] deals with Sodium-dependent serotonin transporter (Homo sapiens, UniProt P31645).
The target of assay [12] is cGMP-inhibited 3',5'-cyclic phosphodiesterase 3A (Homo sapiens, UniProt Q14432). In kind it is functional.
cGMP-inhibited 3',5'-cyclic phosphodiesterase 3A, sequence (Q14432 whole entry): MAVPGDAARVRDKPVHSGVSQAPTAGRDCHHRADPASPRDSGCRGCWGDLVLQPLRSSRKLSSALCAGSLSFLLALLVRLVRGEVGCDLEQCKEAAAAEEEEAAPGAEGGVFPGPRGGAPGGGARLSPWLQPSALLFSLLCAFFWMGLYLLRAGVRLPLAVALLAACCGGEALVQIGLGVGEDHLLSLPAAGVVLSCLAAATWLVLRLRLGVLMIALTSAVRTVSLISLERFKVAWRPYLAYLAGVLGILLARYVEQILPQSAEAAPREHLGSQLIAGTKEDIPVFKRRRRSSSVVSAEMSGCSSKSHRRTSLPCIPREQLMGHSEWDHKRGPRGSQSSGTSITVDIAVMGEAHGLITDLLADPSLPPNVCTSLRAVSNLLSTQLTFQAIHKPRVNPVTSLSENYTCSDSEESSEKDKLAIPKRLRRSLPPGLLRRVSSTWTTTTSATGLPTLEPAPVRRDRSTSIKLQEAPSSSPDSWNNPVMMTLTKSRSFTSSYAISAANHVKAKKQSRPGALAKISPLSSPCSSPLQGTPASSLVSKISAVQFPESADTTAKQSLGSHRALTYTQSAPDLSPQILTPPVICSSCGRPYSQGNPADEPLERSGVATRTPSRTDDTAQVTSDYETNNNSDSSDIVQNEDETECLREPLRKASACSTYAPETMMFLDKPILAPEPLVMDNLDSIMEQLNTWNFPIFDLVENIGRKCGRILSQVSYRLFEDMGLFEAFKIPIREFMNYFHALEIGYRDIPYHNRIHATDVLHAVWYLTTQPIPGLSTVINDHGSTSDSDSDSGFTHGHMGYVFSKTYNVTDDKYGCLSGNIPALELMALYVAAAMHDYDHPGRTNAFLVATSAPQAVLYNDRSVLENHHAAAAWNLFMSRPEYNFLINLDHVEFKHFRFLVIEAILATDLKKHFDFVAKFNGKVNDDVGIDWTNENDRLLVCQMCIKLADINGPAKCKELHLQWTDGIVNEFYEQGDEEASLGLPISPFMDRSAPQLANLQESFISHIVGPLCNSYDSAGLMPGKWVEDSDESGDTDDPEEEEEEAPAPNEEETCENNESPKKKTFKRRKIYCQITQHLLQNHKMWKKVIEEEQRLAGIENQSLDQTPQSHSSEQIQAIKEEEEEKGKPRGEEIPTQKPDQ
The target in the next assay is D(3) dopamine receptor (Homo sapiens, UniProt P35462).
D(3) dopamine receptor, sequence (P35462 whole entry): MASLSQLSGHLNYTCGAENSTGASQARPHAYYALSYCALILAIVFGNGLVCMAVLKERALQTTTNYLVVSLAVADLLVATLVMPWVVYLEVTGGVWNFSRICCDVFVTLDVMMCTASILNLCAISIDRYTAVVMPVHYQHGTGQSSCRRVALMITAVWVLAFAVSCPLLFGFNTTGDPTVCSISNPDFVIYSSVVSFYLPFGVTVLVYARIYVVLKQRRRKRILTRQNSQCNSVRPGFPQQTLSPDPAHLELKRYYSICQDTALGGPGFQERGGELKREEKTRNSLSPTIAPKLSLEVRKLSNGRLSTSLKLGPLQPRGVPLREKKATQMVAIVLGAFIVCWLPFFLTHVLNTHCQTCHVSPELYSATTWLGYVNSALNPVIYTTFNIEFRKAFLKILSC
Also: assay procedure not described here.

Voltage-gated inwardly rectifying potassium channel KCNH2, sequence (Q12809 whole entry): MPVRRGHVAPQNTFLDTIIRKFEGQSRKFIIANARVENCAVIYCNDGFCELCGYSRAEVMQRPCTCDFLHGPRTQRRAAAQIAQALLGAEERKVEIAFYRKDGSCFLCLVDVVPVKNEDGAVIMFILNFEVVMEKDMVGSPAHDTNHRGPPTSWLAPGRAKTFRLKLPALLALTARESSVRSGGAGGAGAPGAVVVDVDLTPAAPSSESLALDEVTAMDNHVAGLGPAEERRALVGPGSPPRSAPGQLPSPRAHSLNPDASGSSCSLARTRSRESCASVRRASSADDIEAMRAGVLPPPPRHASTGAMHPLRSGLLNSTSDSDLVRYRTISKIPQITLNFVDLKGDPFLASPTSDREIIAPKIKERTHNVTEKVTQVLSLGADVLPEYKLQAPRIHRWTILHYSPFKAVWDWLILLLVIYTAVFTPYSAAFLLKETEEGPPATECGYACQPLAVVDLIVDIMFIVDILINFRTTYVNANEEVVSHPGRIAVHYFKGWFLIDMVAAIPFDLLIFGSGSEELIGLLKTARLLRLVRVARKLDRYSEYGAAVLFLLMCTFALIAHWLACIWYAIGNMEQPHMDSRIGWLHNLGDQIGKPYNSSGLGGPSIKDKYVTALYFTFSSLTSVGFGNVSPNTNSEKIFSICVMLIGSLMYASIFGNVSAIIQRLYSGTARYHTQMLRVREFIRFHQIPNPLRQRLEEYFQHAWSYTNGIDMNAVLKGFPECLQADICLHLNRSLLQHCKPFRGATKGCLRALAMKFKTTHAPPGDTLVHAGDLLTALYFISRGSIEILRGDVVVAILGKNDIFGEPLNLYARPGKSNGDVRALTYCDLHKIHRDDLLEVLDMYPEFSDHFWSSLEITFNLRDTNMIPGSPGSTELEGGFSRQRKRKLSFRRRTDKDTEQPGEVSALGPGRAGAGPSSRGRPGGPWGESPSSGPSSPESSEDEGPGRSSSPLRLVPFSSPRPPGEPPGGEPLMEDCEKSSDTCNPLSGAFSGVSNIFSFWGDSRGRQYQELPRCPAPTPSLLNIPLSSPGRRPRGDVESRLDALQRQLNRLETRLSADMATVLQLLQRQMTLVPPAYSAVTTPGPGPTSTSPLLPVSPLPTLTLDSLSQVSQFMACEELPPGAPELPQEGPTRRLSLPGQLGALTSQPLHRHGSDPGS
T3 sequence (P41595 whole entry): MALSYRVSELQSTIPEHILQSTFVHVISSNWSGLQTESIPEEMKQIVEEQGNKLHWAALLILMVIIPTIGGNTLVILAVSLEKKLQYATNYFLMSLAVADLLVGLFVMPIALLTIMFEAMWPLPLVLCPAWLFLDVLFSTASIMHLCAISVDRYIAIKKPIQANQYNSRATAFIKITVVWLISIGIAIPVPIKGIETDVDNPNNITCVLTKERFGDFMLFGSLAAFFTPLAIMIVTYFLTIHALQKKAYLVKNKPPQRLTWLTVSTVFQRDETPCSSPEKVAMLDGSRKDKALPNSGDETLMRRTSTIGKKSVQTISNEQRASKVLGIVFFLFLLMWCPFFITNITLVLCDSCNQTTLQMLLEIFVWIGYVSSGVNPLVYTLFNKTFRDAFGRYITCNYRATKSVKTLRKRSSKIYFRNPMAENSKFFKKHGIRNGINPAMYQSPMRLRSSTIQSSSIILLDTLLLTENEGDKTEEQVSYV

As a reminder, the AC50 is the concentration giving half of the maximal activity seen. On to `N#Cc1ccccc1-c1cc(-c2ccccn2)cn(-c2ccccc2)c1=O`, for which the half-maximal activity concentration (AC50) (in [1]; in assay [2]; in [3]; on Histamine H1 receptor; in assay [4]; in assay [5]) was > 30 µM throughout. Further, the AC50 in assay [6], in assay [7], in [8], in assay [9], in assay [10] and in assay [11] was > 30 µM throughout. Also, the AC50 (in assay [12]; on D(3) dopamine receptor) was > 30 µM throughout.

As to `N=C(N)NCCCCCCC(=O)NC(O)C(=O)NCCCCNCCCN` (stereo not given), the AC50 (in assay [1]; in assay [2]; in assay [3]; on Histamine H1 receptor; in assay [4]; in assay [5]) was > 30 µM throughout. The AC50 in [6], in assay [7], in assay [8], in assay [9], in [10] and in assay [11] was > 30 µM throughout. In addition, the AC50 (in assay [12]; on D(3) dopamine receptor) was > 30 µM throughout.

Turning to `C=C[C@@]1(C)CC(=O)[C@]2(O)[C@@]3(C)[C@@H](O)CCC(C)(C)[C@@H]3[C@H](OC(=O)CCN(C)C)[C@H](OC(C)=O)[C@@]2(C)O1`, the AC50 (in assay [1]; in assay [2]; in [3]; on Histamine H1 receptor; in assay [4]; in assay [5]) was > 30 µM each time. Further, the AC50 was > 30 µM in assay [6]; 7.8 µM in [7]; > 30 µM in [8]; > 30 µM in assay [9]; > 30 µM in assay [10]; > 30 µM in [11]. The AC50 (in [12]; at D(3) dopamine receptor) was > 30 µM in each case.

In the case of `C=CC1=C(C(=O)O)N2C(=O)[C@@H](NC(=O)/C(=N\OCC(=O)O)c3csc(N)n3)[C@H]2SC1` [CEFIXIME], the AC50 (in [2]; in assay [3]; at Histamine H1 receptor; in assay [4]; in assay [5]; in [7]) was > 30 µM in each case. Moreover, the AC50 in assay [8], in assay [10], in assay [11] and in assay [12] was > 30 µM throughout.

Consider `C#C[C@]1(O)CC[C@H]2[C@@H]3CCC4=CC(=O)CCC4=C3C=C[C@@]21CC` [GESTRINONE], for which the AC50 (in assay [1]; in [2]; in assay [3]; at Histamine H1 receptor; in [4]; in assay [5]) was > 30 µM throughout. For the same compound, the AC50 in [6] was 24 µM; in assay [7], > 30 µM; in assay [8] it was > 30 µM; in assay [9], 23 µM; in [11], 0.033 µM; in assay [12], 2.9 µM. Besides, at D(3) dopamine receptor, the AC50 is > 30 µM.

Take `O=C1Nc2ccc(Cl)cc2C(c2ccccc2)=NC1O` (stereo not given) [OXAZEPAM]: the AC50 is > 10 µM in assay [1]; > 10 µM in assay [2]; > 10 µM in assay [3]; > 10 µM on Histamine H1 receptor; > 30 µM in assay [4]; > 10 µM in assay [5]. In addition, the AC50 in [6] was > 10 µM; in assay [8] it was > 30 µM; in [9], > 10 µM; in assay [10], > 30 µM; in assay [11], > 10 µM; in assay [12], > 30 µM. The AC50 at D(3) dopamine receptor is > 10 µM.

Take `CC[N+]1(C)CCCC(OC(=O)C(O)(c2ccccc2)c2ccccc2)C1` (stereo not given) [PIPENZOLATE]: the AC50 is > 30 µM in assay [1]; > 30 µM in [2]; > 30 µM in assay [3]; 27 µM on Histamine H1 receptor; > 30 µM in assay [4]; > 30 µM in assay [5]. In addition, the AC50 in assay [6] was > 30 µM; in assay [7] it was 0.97 µM; in [8], > 30 µM; in [9], > 30 µM; in assay [11], > 30 µM; in assay [12], > 30 µM. Besides, the AC50 on D(3) dopamine receptor is > 30 µM.

`Cc1ccc2c(-c3ccccc3)nc(=O)n(C(C)C)c2c1` [PROQUAZONE]: the AC50 (in assay [1]; in assay [2]; in assay [3]; on Histamine H1 receptor; in assay [4]; in [5]) was > 30 µM in each case. For the same compound, the AC50 (in assay [7]; in assay [8]; in assay [9]; in assay [11]; in assay [12]; on D(3) dopamine receptor) was > 30 µM throughout.

Consider `CN1CCN(c2c(F)cc3c(=O)c(C(=O)O)cn4c3c2SCC4)CC1` [RUFLOXACIN], for which the AC50 was 9.8 µM in [1]; > 30 µM in assay [2]; > 30 µM in [3]; > 30 µM on Histamine H1 receptor; > 30 µM in assay [4]; > 30 µM in assay [5]. In addition, the AC50 (in assay [7]; in assay [8]; in [9]; in [11]; in assay [12]; on D(3) dopamine receptor) was > 30 µM in each case.

Turning to `COc1c(O[C@@H]2O[C@H](CO)[C@@H](O)[C@H](O)[C@H]2O)cc2c(c1OC)-c1ccc(SC)c(=O)cc1[C@@H](NC(C)=O)CC2` [THIOCOLCHICOSIDE], the AC50 (in assay [1]; in [2]; in [3]; on Histamine H1 receptor; in assay [4]; in assay [5]) was > 30 µM in each case. Moreover, the AC50 in assay [6], in [7], in assay [8], in [9], in [11] and in [12] was > 30 µM each time. For the same compound, the AC50 at D(3) dopamine receptor was > 30 µM.

For `COc1cc2c(Nc3ccc(Br)cc3F)ncnc2cc1OCC1CCN(C)CC1` [VANDETANIB], the AC50 in assay [1] is 0.682 µM; in assay [2] it was 0.856 µM; in [3], > 30 µM; in assay [4], > 30 µM; in [5], > 30 µM; in assay [6] it was 14 µM. Also, the AC50 in assay [8] was > 30 µM; in assay [9], > 30 µM; in [10], > 30 µM; in [11], 3.4 µM; in [12], > 30 µM; on D(3) dopamine receptor, 20 µM.

Source of the values: ChEMBL document CHEMBL5291721, “A preclinical secondary pharmacology resource illuminates target-adverse drug reaction associations of marketed drugs” (Nat Commun, 2023).
